Results taken from patent publication US20110098296A1, “Thiazole And Oxazole Kinase Inhibitors” (priority 2007, published 2011).
Structures can show the parent of a compound that is named as a salt.

Legend:
EGFR = target: T1, EGFR (Homo sapiens, UniProt P00533); assay: EGFR substrate phosphorylation assay (HTRF); type: biochemical
T1 construct: made in house; host or cells: baculovirus expression system
Procedure: (§1) Compounds of the present invention were tested for EGFR and ErbB-2 protein tyrosine kinase inhibitory activity in substrate phosphorylation assays using enzymes purified from a baculovirus expression system. Reagent production was conducted essentially as described in Brignola, P. S., et al., (2002) J. Biol. Chem. 277(2):1576-1585.
(§2) The method measures the ability of the isolated enzyme to catalyse the transfer of the gamma-phosphate from ATP onto the tyrosine residue of a biotinylated synthetic peptide referenced “Peptide C” in Brignola, P. S., et al., (2002) J. Biol. Chem. 277(2):1576-1585. The extent of tyrosine phosphorylation was measured using an anti-phosphotyrosine antibody, and quantified by homogenous time-resolved fluorescence (HTRF).
(§3) Reactions were performed in black 384-well polystyrene flat-bottom plates in a final volume of 20 μl. Assays were performed by adding 10 μl of each of the following solutions, Substrate Mix and Enzyme Mix: The Substrate Mix contained 100 mM 3-[N-morpholino]propanesulfonic acid (MOPS) (pH 7.5), 2 mM MnCl2, 20 μM ATP, 0.01% Tween-20, 0.1 mg/mL (BSA), 0.8 uM peptide substrate, and 1 mM dithiothreitol. The Enzyme Mix contained 100 mM MOPS (pH 7.5); 0.01% Tween-20; 0.1 mg/mL BSA, and either 0.8 nM EGFR, 10 nM ErbB2, or 1 nM ErbB4
(§4) During the course of these studies, two separate methods have been used to measure the potency of compounds. In Method A (indicated as “(A)” in the tables below), the Enzyme Mix was added to the compound plates and the plates were incubated at 20° C. for 1 hr. The reactions were then started by adding the Substrate Mix. In Method B (indicated as “(B)” in the tables below), the Substrate Mix was added to the compound plates first, then the reaction was started by adding the Enzyme Mix.
(§5) After initiating the reaction with either method describe above, the reactions were allowed to proceed for 90 minutes at 20° C. The reactions were then terminated by the addition of 20 μL 100 mM EDTA to each well. 40 μL/well of HTRF detection mix were added to the assay plates. The final concentrations of the detection reagents were: 100 mM HEPES (pH7.5), 0.1 mg/mL BSA, 15 nM streptavidin-labeled allophycocyanin (PerkinElmer), and 1 nM europium-labeled anti-phosphotyrosine antibody (PerkinElmer). Assay plates were left unsealed and were counted in a Wallac Multilabel Counter 1420 (PerkinElmer).
(§6) Compounds under analysis were dissolved in dimethylsulfoxide (DMSO) to 1.0 mM and serially diluted 1 to 3 with DMSO through twelve dilutions. 1 μL of each concentration was transferred to the corresponding well of an assay plate. This creates a final compound concentration range from 0.00027 to 47.6 μM.
(§7) The data for dose responses were plotted as % Inhibition calculated with the data reduction formula 100*(1−(U1−C2)/(C1−C2)) versus concentration of compound where U1 is the unknown value, C1 is the average control value obtained for 4.76% DMSO, and C2 is the average control value obtained for 0.035 M EDTA. Data were fitted with a curve described by:
(§8) where Vmax is the upper asymptote, Y2 is the Y intercept, and K is the IC50. The results for each compound were recorded as pIC50s, calculated as follows: […]

ErbB2 = target: T2, ErbB2 (Homo sapiens, UniProt P04626); assay: ErbB-2 substrate phosphorylation assay (HTRF); type: biochemical
T2 construct: made in house; host or cells: baculovirus expression system
Procedure: as §1, §2, §3, §4, §5, §6, §7, §8

BT474 tumor cells = assay: Method C: Cell Growth Inhibition Assay (CellTiter-Glo), BT474; type: cell-based; details: Homo sapiens, BT-474, 72 h, 3 days, 4-parameter fit
Procedure: (§9) Human breast tumor cells (BT474) were cultured in RPMI (Mediatech 50-011-PB), containing 10% FBS (JRH Biosciences 12176) and 1% penicillin-streptomycin (Invitrogen 15140). Human head and neck tumor cells (HN5) were cultured in high glucose DMEM (Mediatech 50-013-PB) containing 10% FBS and 1% penicillin-streptomycin. Human colon tumor cells (Colo205) were cultured in RPMI (Mediatech 50-020-PB) containing 10% FBS and 1% penicillin-streptomycin. Human melanoma cancer cells (SK-MEL-28) were cultured in EMEM with nonessential amino acids (Mediatech 50-011-PB) containing 10% FBS, 1% sodium pyruvate (JT Baker 3354-04), and 1% penicillin-streptomycin. Human melanoma cancer cells (A375P F11s) were cultured in RPMI (Mediatech 50-020-PB) containing 10% FBS, 1% sodium pyruvate, and 1% penicillin-streptomycin. Human colon cancer cells (HT-29) were cultured in high glucose DMEM (Mediatech 50-013-PB) containing 10% FBS and 1% penicillin-streptomycin. Human melanoma cancer cells (SK-MEL-3) were cultured in McCoy's 5A (50-025-PB) containing 15% FBS, and 1% penicillin-streptomycin. All cell lines were maintained at 37° C. in a humidified 5% CO2, 95% air incubator. Cells were harvested using trypsin/EDTA (Invitrogen 25200), counted using an haemocytometer, and plated. For 96-well assays (using white full-area NUNC plates cat. #136102), cells were plated in 105 μL at the following densities (cells/well): HN5, 500; Colo205, 500; SK-MEL-28, 500; A375P-F11s, 500; HT-29, 500; SK-MEL-3, 500; and BT474, 3000. For 384-well assays (white full-area NUNC plates, cat. #781080), cells were plated in 48 μL at the following densities (cells/well): HN5, 500; Colo205, 500; SK-MEL-28, 500; A375P-F11s, 500; HT29, 500; SK-MEL-3, 500; and BT474, 2000.
(§10) The next day, compounds were diluted as follow: For 96-well assays, 13.5 μL of compound in DMSO were diluted using nine (9) serial 1:3 dilutions of 4.5 μL in 9 μL of DMSO. Medium (270 μl/well of RPMI with 10% FBS and 1% penicillin-streptomycin) was added to the plates. Aliquots (7 μl) were added to cells in the final assay giving a final DMSO concentration of 0.2%. For 384-well assays, 15 μL of compound in DMSO were diluted using nine (9) serial 1:3 dilutions of 5 μL in 10 μL of DMSO, followed by a further dilution of 5 μL of compound with 95 μL of medium, of which 2 μL were added to cells in the final assay giving a final DMSO concentration of 0.2%. Cells were incubated at 37° C., 5% CO2 for 3 days.
(§11) Total ATP was measured (as a surrogate estimate of cell number) using CellTiter-Glo® reagent (Promega G7571). Briefly, plates were removed from the incubator and allowed to equilibrate to room temperature for 30 minutes. CellTiter-Glo® (25 μL or 55 μL for 384-well or 96-well assays, respectively) reagent was added to each well and plates were shaken on an orbital plate shaker for 2 mins. Plates were incubated without shaking for a further 30 mins and read on an LJL Analyst GT reader in luminometer mode with an integration time of 0.5 seconds per well. Percent inhibition of cell growth was calculated relative to DMSO vehicle-treated control wells. Concentration of compound required to give 50% inhibition of vehicle-treated control cell growth (IC50) was interpolated using a 4-parameter fit for determining IC50 using the following equation: Y=A+((B−A)/(1+((C/X)̂D))) where X=IC50.

Colo205 tumor cells = assay: Method C: Cell Growth Inhibition Assay (CellTiter-Glo), Colo205; type: cell-based; details: Homo sapiens, COLO 205, 72 h, 3 days, 4-parameter fit
Procedure: as §9, §10, §11

SK-MEL-28 tumor cells = assay: Method C: Cell Growth Inhibition Assay (CellTiter-Glo), SK-MEL-28; type: cell-based; details: Homo sapiens, SK-MEL-28, 72 h, 3 days, 4-parameter fit
Procedure: as §9, §10, §11

[1] = Method (A): Enzyme Mix incubated with compound at 20° C. for 1 hr, reaction started by adding Substrate Mix
[2] = Method (B): Substrate Mix added to compound first, reaction started by adding Enzyme Mix

T1 sequence (P00533 25-1210): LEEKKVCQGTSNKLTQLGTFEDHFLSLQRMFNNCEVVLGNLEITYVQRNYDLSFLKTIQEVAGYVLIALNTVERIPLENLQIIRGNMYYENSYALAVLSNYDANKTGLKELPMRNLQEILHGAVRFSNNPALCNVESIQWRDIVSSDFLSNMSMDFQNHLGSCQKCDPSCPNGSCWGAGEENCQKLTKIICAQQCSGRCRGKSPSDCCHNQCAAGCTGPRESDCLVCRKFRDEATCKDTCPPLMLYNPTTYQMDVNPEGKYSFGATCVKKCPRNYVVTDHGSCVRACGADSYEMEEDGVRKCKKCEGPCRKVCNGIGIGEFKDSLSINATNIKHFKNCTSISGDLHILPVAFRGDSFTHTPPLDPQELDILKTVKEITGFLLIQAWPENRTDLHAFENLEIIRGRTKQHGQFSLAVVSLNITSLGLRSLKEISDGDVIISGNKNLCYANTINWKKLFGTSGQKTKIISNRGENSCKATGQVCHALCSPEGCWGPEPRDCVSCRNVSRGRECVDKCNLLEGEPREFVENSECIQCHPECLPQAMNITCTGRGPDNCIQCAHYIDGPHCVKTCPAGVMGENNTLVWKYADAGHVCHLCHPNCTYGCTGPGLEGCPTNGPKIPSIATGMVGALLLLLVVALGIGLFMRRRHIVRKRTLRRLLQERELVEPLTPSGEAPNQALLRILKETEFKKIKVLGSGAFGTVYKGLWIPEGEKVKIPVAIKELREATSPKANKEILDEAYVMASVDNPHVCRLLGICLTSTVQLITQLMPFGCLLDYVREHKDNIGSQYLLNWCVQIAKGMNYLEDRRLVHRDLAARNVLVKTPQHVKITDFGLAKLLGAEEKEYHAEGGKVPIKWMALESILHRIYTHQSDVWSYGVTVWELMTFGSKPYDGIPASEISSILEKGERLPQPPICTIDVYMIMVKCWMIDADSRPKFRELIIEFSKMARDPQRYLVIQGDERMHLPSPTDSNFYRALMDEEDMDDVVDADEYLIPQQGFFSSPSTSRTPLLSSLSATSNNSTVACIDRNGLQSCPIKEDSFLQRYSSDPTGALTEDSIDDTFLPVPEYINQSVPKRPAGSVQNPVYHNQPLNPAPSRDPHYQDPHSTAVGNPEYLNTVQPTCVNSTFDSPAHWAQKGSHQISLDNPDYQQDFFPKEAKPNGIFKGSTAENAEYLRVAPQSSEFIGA
T2 sequence (P04626 23-1255): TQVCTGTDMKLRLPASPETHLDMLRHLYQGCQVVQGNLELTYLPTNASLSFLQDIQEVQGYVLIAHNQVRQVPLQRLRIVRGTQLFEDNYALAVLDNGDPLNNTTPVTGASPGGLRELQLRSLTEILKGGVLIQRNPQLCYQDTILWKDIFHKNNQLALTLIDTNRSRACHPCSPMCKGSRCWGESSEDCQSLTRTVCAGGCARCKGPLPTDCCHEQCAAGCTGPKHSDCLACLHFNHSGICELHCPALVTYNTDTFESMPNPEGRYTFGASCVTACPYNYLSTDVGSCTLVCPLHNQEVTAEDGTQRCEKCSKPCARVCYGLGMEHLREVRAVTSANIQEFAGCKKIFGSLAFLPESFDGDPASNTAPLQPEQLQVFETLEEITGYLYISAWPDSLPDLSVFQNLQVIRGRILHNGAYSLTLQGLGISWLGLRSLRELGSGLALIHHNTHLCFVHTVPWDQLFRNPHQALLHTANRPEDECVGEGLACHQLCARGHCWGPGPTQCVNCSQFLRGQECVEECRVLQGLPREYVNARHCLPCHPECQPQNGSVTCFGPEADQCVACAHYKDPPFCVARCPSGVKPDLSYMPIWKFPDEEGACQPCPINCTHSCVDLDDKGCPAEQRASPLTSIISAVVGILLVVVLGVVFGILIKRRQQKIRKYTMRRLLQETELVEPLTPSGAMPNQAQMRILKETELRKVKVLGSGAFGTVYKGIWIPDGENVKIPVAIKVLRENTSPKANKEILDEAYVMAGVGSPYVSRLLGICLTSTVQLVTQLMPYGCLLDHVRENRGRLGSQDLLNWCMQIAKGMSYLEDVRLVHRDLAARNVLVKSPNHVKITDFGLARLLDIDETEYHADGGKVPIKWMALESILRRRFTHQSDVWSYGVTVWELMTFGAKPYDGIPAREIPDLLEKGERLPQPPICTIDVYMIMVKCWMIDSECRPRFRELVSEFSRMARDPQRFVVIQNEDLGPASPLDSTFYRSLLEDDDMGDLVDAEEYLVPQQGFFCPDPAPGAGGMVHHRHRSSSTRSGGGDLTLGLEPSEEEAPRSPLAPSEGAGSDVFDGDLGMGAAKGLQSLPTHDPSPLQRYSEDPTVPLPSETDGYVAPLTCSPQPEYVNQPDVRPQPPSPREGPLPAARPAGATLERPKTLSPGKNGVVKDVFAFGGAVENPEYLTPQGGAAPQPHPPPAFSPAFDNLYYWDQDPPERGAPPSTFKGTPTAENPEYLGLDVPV

**Q.** What does the source list for `Cc1nc(-c2cccc(NC(=O)c3cccc(Cl)c3)c2)c(-c2ccnc(Nc3ccc(OCCN(C)C)c(Cl)c3)n2)s1` [Example 136, 3-Chloro-N-[3-(5-{2-[(3-chloro-4-{[2-(dimethylamino)ethyl]oxy}phenyl)amino]-4-pyrimidinyl}-2-methyl-1,3-thiazol-4-yl)phenyl]benzamide]?
**A.** IC50 (EGFR; [1]): < 0.1 µM; IC50 (ErbB2; [1]): < 0.1 µM; IC50 (BT474 tumor cells): 0.1 to 1 µM; IC50 (Colo205 tumor cells): > 1 µM; IC50 (SK-MEL-28 tumor cells): > 1 µM

**Q.** Which results are given for `CN(C)CCOc1ccc(Nc2nccc(-c3sc(NS(=O)(=O)CC(F)(F)F)nc3-c3cccc(NC(=O)c4c(F)cccc4F)c3)n2)cc1` [Example 35, N-[3-(5-{2-[(4-{[2-(Dimethylamino)ethyl]oxy}phenyl)amino]-4-pyrimidinyl}-2-{[(2,2,2-trifluoroethyl)sulfonyl]amino}-1,3-thiazol-4-yl)phenyl]-2,6-difluorobenzamide]?
**A.** IC50 (EGFR; [1]): < 0.1 µM; IC50 (ErbB2; [1]): < 0.1 µM; IC50 (BT474 tumor cells): > 1 µM; IC50 (Colo205 tumor cells): > 1 µM; IC50 (SK-MEL-28 tumor cells): > 1 µM

**Q.** `Cc1nc(-c2cccc(NC(=O)Nc3ccc(Cl)c(C(F)(F)F)c3)c2)c(-c2ccnc(Nc3ccc(OCCN(C)C)c(Cl)c3)n2)s1` [Example 133, N-[3-(5-{2-[(3-Chloro-4-{[2-(dimethylamino)ethyl]oxy}Phenyl)amino]-4-pyrimidinyl}-2-methyl-1,3-thiazol-4-yl)phenyl]-N′-[4-chloro-3-(trifluoromethyl)phenyl]urea] was tested. Which IC50 (EGFR; [1]) did it give?
**A.** Its IC50 is 0.1 to 1 µM.

**Q.** And the IC50 (ErbB2; [1])?
**A.** The IC50 was 0.1 to 1 µM.

**Q.** What about the IC50 (BT474 tumor cells) of the same molecule?
**A.** Its IC50 is over 1 µM.

**Q.** And the IC50 (Colo205 tumor cells)?
**A.** Its IC50 is 0.1 to 1 µM.

**Q.** And the IC50 (SK-MEL-28 tumor cells)?
**A.** The IC50 was 0.1 to 1 µM.

**Q.** For `COc1cccc(C(=O)Nc2cccc(-c3nc(C)sc3-c3ccnc(Nc4ccc5c(c4)CN(C)CC5)n3)c2)c1` [Example 132, N-[3-(2-Methyl-5-{2-[(2-methyl-1,2,3,4-tetrahydro-7-isoquinolinyl)amino]-4-pyrimidinyl}-1,3-thiazol-4-yl)phenyl]-3-(methyloxy)benzamide trifluoroacetate], which IC50 (EGFR; [1]) is on record?
**A.** Its IC50 is under 0.1 µM.

**Q.** And the IC50 (ErbB2; [1])?
**A.** The IC50 was under 0.1 µM.

**Q.** What about the IC50 (BT474 tumor cells) of the same molecule?
**A.** Its IC50 is 0.1 to 1 µM.

**Q.** What about the IC50 (Colo205 tumor cells) of the same molecule?
**A.** The IC50 was over 1 µM.

**Q.** And the IC50 (SK-MEL-28 tumor cells)?
**A.** Its IC50 is over 1 µM.

**Q.** Which results are given for `CN(C)c1nc(-c2cccc(NC(=O)c3c(F)cccc3F)c2)c(-c2ccnc(Nc3ccc(N4CCOCC4)c(Cl)c3)n2)s1` [Example 41, N-{3-[5-(2-{[3-Chloro-4-(4-morpholinyl)phenyl]amino}-4-pyrimidinyl)-2-(dimethylamino)-1,3-thiazol-4-yl]phenyl}-2,6-difluorobenzamide trifluoroacetate]?
**A.** IC50 (EGFR; [1]): < 0.1 µM; IC50 (ErbB2; [1]): < 0.1 µM; IC50 (Colo205 tumor cells): > 1 µM; IC50 (SK-MEL-28 tumor cells): > 1 µM

**Q.** For `O=C(Nc1cccc(-c2nc(CF)sc2-c2ccnc(Nc3ccc(OCCN4CCCC4)c(F)c3)n2)c1)c1c(F)cccc1F` [Example 127], which IC50 (EGFR; [1]) is on record?
**A.** The IC50 was under 0.1 µM.

**Q.** What about the IC50 (ErbB2; [1]) of the same molecule?
**A.** Its IC50 is under 0.1 µM.

**Q.** What about the IC50 (Colo205 tumor cells) of the same molecule?
**A.** The IC50 was over 1 µM.

**Q.** And the IC50 (SK-MEL-28 tumor cells)?
**A.** Its IC50 is over 1 µM.

**Q.** How did the IC50 (EGFR; [1]) turn out when `CN(C)c1nc(-c2cccc(NC(=O)c3c(F)cccc3F)c2)c(-c2ccnc(Nc3ccc(OCCN4CCCC4)nc3)n2)s1` [Example 43, N-[3-(2-(Dimethylamino)-5-{2-[(6-{[2-(1-pyrrolidinyl)ethyl]oxy}-3-pyridinyl)amino]-4-pyrimidinyl}-1,3-thiazol-4-yl)phenyl]-2,6-difluorobenzamide] was run?
**A.** Its IC50 is under 0.1 µM.

**Q.** What about the IC50 (ErbB2; [1]) of the same molecule?
**A.** Its IC50 is under 0.1 µM.

**Q.** And the IC50 (Colo205 tumor cells)?
**A.** The IC50 was 0.1 to 1 µM.

**Q.** And the IC50 (SK-MEL-28 tumor cells)?
**A.** Its IC50 is over 1 µM.

**Q.** `CCc1nc(-c2cccc(NC(=O)c3c(F)cccc3F)c2)c(-c2ccnc(Nc3ccc(N4CCC(N5CCCCC5)CC4)c(F)c3)n2)s1` [Example 116, N-{3-[5-(2-{[4-(1,4′-Bipiperidin-1′-yl)-3-fluorophenyl]amino}-4-pyrimidinyl)-2-ethyl-1,3-thiazol-4-yl]phenyl}-2,6-difluorobenzamide] was tested. Which IC50 (EGFR; [1]) did it give?
**A.** Its IC50 is under 0.1 µM.

**Q.** What about the IC50 (ErbB2; [1]) of the same molecule?
**A.** Its IC50 is under 0.1 µM.

**Q.** And the IC50 (Colo205 tumor cells)?
**A.** Its IC50 is 0.1 to 1 µM.

**Q.** And the IC50 (SK-MEL-28 tumor cells)?
**A.** Its IC50 is over 1 µM.

**Q.** Which results are given for `O=C(Nc1cccc(-c2ncoc2-c2ccnc(Nc3cccc(F)c3)n2)c1)c1c(F)cccc1F` [Example 141, 2,6-Difluoro-N-[3-(5-{2-[(3-fluorophenyl)amino]-4-pyrimidinyl}-1,3-oxazol-4-yl)phenyl]benzamide]?
**A.** IC50 (EGFR; [2]): > 1 µM; IC50 (ErbB2; [2]): > 1 µM
